Source: patent US11279733B2, “Peptide antibiotics” (priority 2017, dated 2022)
Read-outs that look alike come from different tables or passages of the source.

Key:
HEK293 cells = test: Cytotoxicity, resazurin assay, HEK293
Summary of the method: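 Fluorescence read-out (excitation 560, emission 590) after a 2 h, 37 °C incubation with 5 μM resazurin, following 24 h compound treatment of cells plated at 4000 per well. CC50 values come from fitting dose–response curves of growth inhibition.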

A. baumannii ATCC 19606 = test system: A. baumannii ATCC 19606
Summary of the method: (§1)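 Mid-log cultures grown in Mueller Hinton broth at 37° C were tested by 2-fold broth microdilution at 5×10^5 CFU/mL final. Compounds were dissolved in water and tested over a final range of 32 to 0.015 μg/mL.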

[1] = test system: K. pneumoniae GN_106, PmxR
Summary of the method: as §1

P. aeruginosa ATCC 27853 = test system: P. aeruginosa ATCC 27853
Summary of the method: as §1

[2] = test system: P. aeruginosa GN_105, PmxR
Summary of the method: as §1

polymyxin B sulfate [PolymyxinB, reference compound]
> 300 µM: CC50 (HEK293 cells; read-out: HEK-293-CC50, HEK293, 24 h) | CC50 (HEK293 cells; read-out: HEK-293-CC50, HEK293 cells) | CC50 (HEK293 cells; read-out: HEK-293-CC50, Table 5, HEK293 cells) | CC50 (HEK293 cells; read-out: HEK-293-CC50, Table 6, HEK293 cells) | CC50 (HEK293 cells; read-out: HEK-293 CC50, HEK293 cells)
0.5 µg/mL: MIC P. aeruginosa ATCC 27853 (P. aeruginosa ATCC 27853) | MIC P. aeruginosa ATCC 27853 (P. aeruginosa ATCC 27853; P. aeruginosa ATCC 27853) | MIC, P. aeruginosa ATCC 27853 (P. aeruginosa ATCC 27853; Table 5) | MIC, P. aeruginosa ATCC 27853 (P. aeruginosa ATCC 27853; Table 6)
64 µg/mL: MIC K. pneumoniae GN_106, PmxR [1] | MIC K. pneumoniae GN_106, PmxR ([1]; K. pneumoniae GN_106, PmxR) | MIC, K. pneumoniae Cl 138-16347-20362, PmxR ([1]; Table 5, polymyxin-resistant) | MIC K. pneumoniae GN_106, PmxR ([1]; Table 6, polymyxin-resistant) | MIC K. pneumoniae GN_106, PmxR ([1]; polymyxin-resistant) | MIC K. pneumoniae Cl 183-16357-20352, PmxR ([1]; strain name as in Table 11)
>128 µg/mL: MIC P. aeruginosa GN_105, PmxR [2] | MIC P. aeruginosa GN_105, PmxR ([2]; P. aeruginosa GN_105, PmxR) | MIC, P. aeruginosa PA9704, PmxR ([2]; Table 5, polymyxin-resistant) | MIC P. aeruginosa GN_105, PmxR ([2]; Table 6, polymyxin-resistant) | MIC P. aeruginosa GN_105, PmxR ([2]; polymyxin-resistant) | MIC P. aeruginosa PA9704, PmxR ([2]; strain name as in Table 11)
0.25 µg/mL: MIC A. baumannii ATCC 19606 (A. baumannii ATCC 19606) | MIC A. baumannii ATCC 19606 (A. baumannii ATCC 19606; A. baumannii ATCC 19606) | MIC, A. baumannii ATCC 19606 (A. baumannii ATCC 19606; Table 5) | MIC, A. baumannii ATCC 19606 (A. baumannii ATCC 19606; Table 6)
